We go through 3 molecules from BindingDB's records for doi:10.1016/s0960-894x(98)00264-9 (Royal Danish School of Pharmacy, 1999).

Where only a bound is given, the exact number is not on record here.

The nature of experiment [1]: Compound was evaluated for agonistic activity against mGluR2 alpha metabotropic receptor subtype in rat cortical slice model.
A short description of experiment [2]: Compound was evaluated for agonistic activity against mGluR4a alpha metabotropic receptor subtype in rat cortical slice model.

One may read the EC50 as the midpoint of the concentration-response curve. A low value points to a more potent agent. Consider `CNC(C(=O)O)c1cc(=O)[nH]o1` (stereo unspecified) [(3-Hydroxy-isoxazol-5-yl)-methylamino-acetic acid], for which the EC50 in experiment [1] and in experiment [2] was > 1 mM in each case.
For the molecule `O=C(O)C(NCc1ccccc1)c1cc(=O)[nH]o1` (stereo unspecified) [Benzylamino-(3-hydroxy-isoxazol-5-yl)-acetic acid], the EC50 in experiment [1] and in experiment [2] was > 1 mM each time.
With `CCNC(C(=O)O)c1cc(=O)[nH]o1` (stereo unspecified) [Ethylamino-(3-hydroxy-isoxazol-5-yl)-acetic acid], the EC50 in experiment [1] and in experiment [2] was > 1 mM each time.
